Data set [1] can be described thus: Hydrolysis rate of test compounds in pH 7.4 and 2.0 aqueous solution. As to conditions: HPLC; for Hydrolysis rate at pH 7.4: 0.05 M sodium phosphate buffer pH 7.4, over 6 hours; for Hydrolysis rate at pH 2.0: water adjusted with phosphoric acid to pH 2.0, over 2 hours. It is filed as physicochemical. How it is done: 10 mM DMSO solutions of test compounds were diluted with a 0.05 M sodium phosphate buffer (pH 7.4) or water adjusted with phosphoric acid to pH 2.0, with a final concentration of 0.013 mg/mL. Samples were analyzed over either 2 or 6 hours, by HPLC.
The amount of test compound and the corresponding acid were determined. The rate of conversion of the test compound was calculated based on formation of the corresponding acid and loss of parent.
The rate of hydrolysis of test compounds to 4H-furo[3,2-b]pyrrole-5-carboxylic acid was evaluated in pH 7.4 aqueous solution over 6 hours, and in pH 2.0 aqueous solution over 2 hours, according to General Procedure 14.

The test system of a further data set is D-serine. Nature of the data set: PK-PD evaluation in rats: D-serine levels in cerebellum after oral dosing. The following applies: rat cerebellum, 6 hours after PO dosing, dose normalized to 10 mg/kg of the acid; mean ± spread (n). The data set is classed as in vivo. How it is done:
Rats (Harlan male Sprague) (N=3) were dosed orally with an amount of test compound, suspended in 45% (w/v) hydroxy-β-cyclodextrin vehicle, dose normalized to 10 mg/kg of the corresponding carboxylic acid. Additional male cannulated rats (N=3) were dosed orally with the parent carboxylic acid, suspended in 45% (w/v) hydroxy-β-cyclodextrin vehicle, at 10 mg/kg. Animals were sacrificed at pre-determined time points (e.g., 0.5, 2 and/or 6 hours post administration) with an N=3 at each time point. At sacrifice, trunk blood was collected into tubes containing potassium EDTA, which were then centrifuged to permit isolation of plasma. The cerebellum was dissected from each animal. Plasma and cerebellum samples were stored at −80° C. until samples were analyzed using a SCIEX API2000 or SCIEX API5000 LC/MS/MS. Samples were analyzed for the amount of corresponding parent acid, D-serine, and/or the amount of test compound.
Conversion of test compounds to 4H-furo[3,2-b]pyrrole-5-carboxylic acid (“acid”; 77) in rats was evaluated according to General Procedure 12. 4H-furo[3,2-b]pyrrole-5-carboxylic acid and D-serine levels in plasma and cerebellum were measured. Animals were sacrificed at 6 hours post administration. In Table 6, “[D-serine] cerebellum” refers to D-serine levels, in nmol/g, in the rat cerebellum. In Table 6, “[acid] cerebellum” refers to the concentration, in μM, of the 4H-furo[3,2-b]pyrrole-5-carboxylic acid in the cerebellum. In Table 6, “[acid] plasma” refers to the concentration, in μM, of the 4H-furo[3,2-b]pyrrole-5-carboxylic acid in the plasma. The row labeled “acid”, denotes the data obtained from dosing 4H-furo[3,2-b]pyrrole-5-carboxylic acid. The row labeled “vehicle” denotes the data obtained from dosing vehicle, and the remaining row in the table denote the data obtained from dosing the test compounds.

In the case of `O=C(OCCN1CCOCC1)c1cc2occc2[nH]1` [compound 30, 2-morpholinoethyl 4H-furo[3,2-b]pyrrole-5-carboxylate], in data set [1], the “Hydrolysis rate at pH 7.4” value is reported as “No hydrolysis” and the “Hydrolysis rate at pH 2.0” value is on record as “No hydrolysis”. For the same compound, the “[D-serine] cerebellum” value in the data set with D-serine is 14 ± 1.2(3) nmol/g.

For `CC(OC(=O)OC1CCCCC1)OC(=O)c1cc2occc2[nH]1` (stereo not shown) [compound 39, 1-(cyclohexyloxycarbonyloxy)ethyl 4H-furo[3,2-b]pyrrole-5-carboxylate], the “Hydrolysis rate at pH 7.4” value in data set [1] turned out to be 0.21%/hr. The “[D-serine] cerebellum” value in the data set on D-serine is reported as 17 ± 2.6(3) nmol/g.

On to `O=C(OCC1CCCO1)c1cc2occc2[nH]1` (stereo not shown) [compound 10, (tetrahydrofuran-2-yl)methyl 4H-furo[3,2-b]pyrrole-5-carboxylate], for which, in data set [1], the “Hydrolysis rate at pH 7.4” value is given as “No hydrolysis” and the “Hydrolysis rate at pH 2.0” value is “No hydrolysis”. In addition, in the data set on D-serine, the “[D-serine] cerebellum” value was 19 ± 2.0(6) nmol/g.

`Cc1oc(=O)oc1COC(=O)c1cc2occc2[nH]1` [compound 72, (5-methyl-2-oxo-1,3-dioxol-4-yl)methyl 4H-furo[3,2-b]pyrrole-5-carboxylate]: in data set [1], the “Hydrolysis rate at pH 7.4” value was 0.20%/hr and the “Hydrolysis rate at pH 2.0” value is “No hydrolysis”. In addition, the “[D-serine] cerebellum” value in the data set on D-serine was 21 ± 3.5(9) nmol/g.

Consider `O=C(OCC(=O)N1CCOCC1)c1cc2occc2[nH]1` [compound 21, 2-morpholino-2-oxoethyl 4H-furo[3,2-b]pyrrole-5-carboxylate], for which, in data set [1], the “Hydrolysis rate at pH 7.4” value is recorded as “No hydrolysis” and the “Hydrolysis rate at pH 2.0” value is listed as “No hydrolysis”. For the same compound, the “[D-serine] cerebellum” value in the data set on D-serine is listed as 19 ± 1.0(6) nmol/g.

On to `CN(C)C(=O)COC(=O)c1cc2occc2[nH]1` [compound 20, 2-(dimethylamino)-2-oxoethyl 4H-furo[3,2-b]pyrrole-5-carboxylate], for which, in data set [1], the “Hydrolysis rate at pH 7.4” value is given as “No hydrolysis” and the “Hydrolysis rate at pH 2.0” value is “No hydrolysis”. Further, the “[D-serine] cerebellum” value with D-serine is given as 19 ± 0.8(6) nmol/g.

Regarding `CC(OC(=O)c1cc2occc2[nH]1)OC(=O)C(C)C` (stereo not shown) [compound 35, 1-(isobutyryloxy)ethyl 4H-furo[3,2-b]pyrrole-5-carboxylate], the “Hydrolysis rate at pH 7.4” value in data set [1] was determined as 3.46%/hr. Further, in the data set on D-serine, the “[D-serine] cerebellum” value is given as 16 ± 0.9(3) nmol/g.

For `O=C(OCC(=O)N1CCC1)c1cc2occc2[nH]1` [compound 19, 2-(azetidin-1-yl)-2-oxoethyl 4H-furo[3,2-b]pyrrole-5-carboxylate], in data set [1], the “Hydrolysis rate at pH 7.4” value is given as “No hydrolysis” and the “Hydrolysis rate at pH 2.0” value is given as “No hydrolysis”. The “[D-serine] cerebellum” value in the data set on D-serine is reported as 17 ± 0.7(3) nmol/g.

(Values after patent publication US20110034434A1, “PRODRUGS OF FUSED HETEROCYCLIC INHIBITORS OF D-AMINO ACID OXIDASE” (SEPRACOR INC., priority 2009, published 2011).)
